Source: patent US9512111B2, “N-sulfonylated tetrahydroquinolines and related bicyclic compounds for inhibition of RORγ activity and the treatment of disease” (Lycera Corporation, priority 2010, dated 2016)

Each compound was assayed against T1, RORγ-LBD (Homo sapiens, UniProt P51449) (assay: RORγ-Ligand Binding Domain TR-FRET Assay). Conditions: Table 8, indazoles.
T1 construct: HIS-tagged RORγ-LBD was recombinantly expressed in SF9 cells; made in house; host or cells: SF9 cells (baculovirus); unpurified lysate
T1 sequence (P51449 269-508 limits assumed): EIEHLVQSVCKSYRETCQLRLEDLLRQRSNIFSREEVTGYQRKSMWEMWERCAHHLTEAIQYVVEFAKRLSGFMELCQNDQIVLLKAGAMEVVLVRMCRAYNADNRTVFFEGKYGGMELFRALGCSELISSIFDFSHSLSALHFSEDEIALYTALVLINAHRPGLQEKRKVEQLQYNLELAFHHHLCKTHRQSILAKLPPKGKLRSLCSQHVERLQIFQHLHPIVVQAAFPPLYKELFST
Format: biochemical
Procedure: HIS-tagged RORγ-LBD was recombinantly expressed in SF9 cells using a baculovirus expression system. The protein was not purified. Cells were lysed and the lysate was used as a source for RORγ-LBD for the assay. A 1:80 dilution of RORγ-LBD lysate in assay buffer (25 mM HEPES pH 7.0, 100 mM NaCl, 0.01% Tween, 0.1% BSA) was prepared and 5 μL was added to each well (RORγ-LBD final concentration ˜10 nM). Control wells received lysate from SF9 cells not expressing RORγ-LBD.
Compounds to be tested were diluted to 100× final test concentration in DMSO and further diluted to 4× final test concentration using assay buffer to provide the test compound mixture. An aliquot (5 μL) of the test compound mixture was added to each well.
A 4× stock of biotinylated-LXXLL peptide from SRC1-2 (Biotin-[…]) was prepared in assay buffer and a 5 μL aliquot added to each well (450 nM final concentration). A 4× solution of europium tagged anti-HIS antibody (2 nM final concentration) and APC conjugated streptavidin (60 nM final concentration) were prepared and a 5 μL aliquot added to each well.
The final assay mixture was incubated for 4 hours to overnight, and the fluorescence signal was measured on an Envision plate reader: (Excitation filter=340 nm; APC emission=665 nm; Europium emission=615 nm; dichroic mirror=D400/D630; delay time=100 μs, integration time=200 μs).
IC50 values for test compounds were calculated from the quotient of the fluorescence signal at 665 nm divided by the fluorescence signal at 615 nm using GraphPad Prism software.

Compound	IC50
O=C(Nc1ccc2cnn(S(=O)(=O)Cc3ccc(C(F)(F)F)cc3)c2c1)c1c(F)cccc1Cl [Compound V-140]	< 15 µM
O=C(Nc1ccc2cnn(S(=O)(=O)c3cc(Cl)c(Cl)s3)c2c1)c1c(F)cccc1Cl [Compound V-97]	< 15 µM
Cc1nn(C(F)F)cc1S(=O)(=O)n1ncc2ccc(NC(=O)Cc3ccc(Cl)cc3)cc21 [Compound V-27]	< 15 µM
O=C(Nc1ccc2cnn(S(=O)(=O)c3cccc(OC(F)F)c3)c2c1)c1c(F)cccc1C(F)(F)F [Compound V-45]	< 15 µM
CCn1cc(S(=O)(=O)n2ncc3ccc(NC(=O)c4c(F)cccc4Cl)cc32)cn1 [Compound V-113]	< 15 µM
N#Cc1nn(S(=O)(=O)c2cccc(C(F)(F)F)c2)c2cc(NC(=O)c3c(F)cccc3Cl)ccc12 [Compound V-9]	< 15 µM
O=C(Nc1ccc2cnn(S(=O)(=O)Cc3ccc(C(F)(F)F)cc3)c2c1)c1c(F)cccc1C(F)(F)F [Compound V-47]	< 15 µM
COc1ccccc1S(=O)(=O)n1ncc2ccc(NC(=O)c3c(F)cccc3Cl)cc21 [Compound V-111]	< 15 µM
O=C(Nc1ccc2cnn(S(=O)(=O)Cc3cc(C(F)(F)F)cc(C(F)(F)F)c3)c2c1)c1c(F)cccc1Cl [Compound V-93]	< 15 µM
Cc1ccc(F)c(S(=O)(=O)n2ncc3ccc(NC(=O)c4c(F)cccc4Cl)cc32)c1 [Compound V-101]	< 15 µM
O=C(Nc1ccc2cnn(S(=O)(=O)C3CCOCC3)c2c1)c1c(F)cccc1Cl [Compound V-79]	< 15 µM
COc1cccc(S(=O)(=O)n2ncc3ccc(NC(=O)Cc4ccc(F)cc4)cc32)c1 [Compound V-26]	< 15 µM
COC(=O)c1cccc(S(=O)(=O)n2ncc3ccc(NC(=O)c4c(F)cccc4Cl)cc32)c1 [Compound V-108]	< 15 µM
N#Cc1ccccc1S(=O)(=O)n1ncc2ccc(NC(=O)c3c(F)cccc3Cl)cc21 [Compound V-87]	< 15 µM
O=C(Nc1ccc2cnn(S(=O)(=O)c3cc(Cl)cc(Cl)c3)c2c1)c1c(F)cccc1Cl [Compound V-126]	< 15 µM
O=C(Nc1ccc2cnn(S(=O)(=O)c3cc(Cl)sc3Cl)c2c1)c1c(F)cccc1Cl [Compound V-82]	< 15 µM
COc1ccc(S(=O)(=O)n2ncc3ccc(NC(=O)c4c(F)cccc4Cl)cc32)c(OC)c1 [Compound V-91]	< 15 µM
Cc1cccc(S(=O)(=O)n2ncc3ccc(NC(=O)Cc4ccc(F)cc4)cc32)c1 [Compound V-25]	< 15 µM
Cc1ccc(S(=O)(=O)n2ncc3ccc(NC(=O)c4c(F)cccc4Cl)cc32)cc1Cl [Compound V-127]	< 15 µM
CC(C)(C)c1cccc(S(=O)(=O)n2ncc3ccc(NC(=O)c4c(Cl)cccc4Cl)cc32)c1 [Compound V-67]	< 15 µM
Cc1nn(C)c(C)c1S(=O)(=O)n1ncc2ccc(NC(=O)c3c(F)cccc3Cl)cc21 [Compound V-90]	< 15 µM
O=C(Nc1ccc2cnn(S(=O)(=O)Cc3ccc(F)cc3)c2c1)c1c(F)cccc1Cl [Compound V-160]	< 15 µM
Cc1nn(C(F)F)cc1S(=O)(=O)n1ncc2ccc(NC(=O)c3c(F)cccc3F)cc21 [Compound V-13]	< 15 µM
CC(=O)c1cccc(S(=O)(=O)n2ncc3ccc(NC(=O)Cc4cnc(C)s4)cc32)c1 [Compound V-4]	< 15 µM
CC(=O)c1ccc(S(=O)(=O)n2ncc3ccc(NC(=O)c4c(F)cccc4Cl)cc32)cc1 [Compound V-141]	< 15 µM
O=C(Nc1ccc2cnn(S(=O)(=O)c3ccc(Cl)s3)c2c1)c1c(F)cccc1Cl [Compound V-96]	< 15 µM

The remaining lines, values ahead:

IC50	Compound
< 15 µM	COc1ccc(F)cc1S(=O)(=O)n1ncc2ccc(NC(=O)c3c(F)cccc3Cl)cc21 [Compound V-100]
< 15 µM	Cc1cc(F)ccc1S(=O)(=O)n1ncc2ccc(NC(=O)c3c(F)cccc3Cl)cc21 [Compound V-163]
< 15 µM	COc1cccc(S(=O)(=O)n2ncc3ccc(NC(=O)Cc4cc(F)cc(F)c4)cc32)c1 [Compound V-16]
< 15 µM	CC(C)(C)c1cccc(S(=O)(=O)n2ncc3ccc(NC(=O)Cc4ccc(F)cc4)cc32)c1 [Compound V-23]
< 15 µM	O=C(Nc1ccc2cnn(S(=O)(=O)c3ccccc3OC(F)(F)F)c2c1)c1c(F)cccc1Cl [Compound V-130]
< 15 µM	O=C(Nc1ccc2cnn(S(=O)(=O)c3cccc(OC(F)(F)F)c3)c2c1)c1c(F)cccc1Cl [Compound V-54]
< 15 µM	Cc1ccc(S(=O)(=O)n2ncc3ccc(NC(=O)c4c(F)cccc4Cl)cc32)c(F)c1 [Compound V-118]
< 15 µM	O=C(Nc1ccc2cnn(S(=O)(=O)c3ccc(N4CCOCC4)nc3)c2c1)c1c(F)cccc1Cl [Compound V-95]
< 15 µM	Cc1ncc(CC(=O)Nc2ccc3cnn(S(=O)(=O)c4cccc(C(C)(C)C)c4)c3c2)s1 [Compound V-2]
< 15 µM	O=C(Nc1ccc2cnn(S(=O)(=O)c3cccc(Cl)c3)c2c1)c1c(F)cccc1F [Compound V-61]
< 15 µM	Cc1cccc(S(=O)(=O)n2ncc3ccc(NC(=O)c4c(F)cccc4Cl)cc32)c1 [Compound V-124]
< 15 µM	CC(C)(C)c1cccc(S(=O)(=O)n2ncc3ccc(NC(=O)Cc4ccc(Cl)cc4)cc32)c1 [Compound V-28]
< 15 µM	CC(=O)c1cccc(S(=O)(=O)n2ncc3ccc(NC(=O)c4c(F)cccc4F)cc32)c1 [Compound V-59]
< 15 µM	Cc1c(S(=O)(=O)n2ncc3ccc(NC(=O)c4c(F)cccc4Cl)cc32)cnn1C [Compound V-110]
< 15 µM	CC(=O)c1cccc(S(=O)(=O)n2ncc3ccc(NC(=O)c4c(Cl)cccc4Cl)cc32)c1 [Compound V-69]
< 15 µM	Cc1ncc(CC(=O)Nc2ccc3cnn(S(=O)(=O)c4cccc(Cl)c4)c3c2)s1 [Compound V-6]
< 15 µM	O=C(Nc1ccc2cnn(S(=O)(=O)c3ccccc3C(F)(F)F)c2c1)c1c(F)cccc1Cl [Compound V-132]
< 15 µM	O=C(Nc1ccc2cnn(S(=O)(=O)c3ccsc3)c2c1)c1c(F)cccc1Cl [Compound V-99]
< 15 µM	O=C(Nc1ccc2cnn(S(=O)(=O)c3cc(F)cc(C(F)(F)F)c3)c2c1)c1c(F)cccc1Cl [Compound V-161]
< 15 µM	O=C(Nc1ccc2cnn(S(=O)(=O)c3cccnc3)c2c1)c1c(F)cccc1Cl [Compound V-94]
< 15 µM	O=C(Nc1ccc2cnn(S(=O)(=O)Cc3ccc(C(F)(F)F)cc3)c2c1)c1c(Cl)cccc1Cl [Compound V-71]

Same assay, conditions: benzoxazines, Table 9

Compound	IC50
NCC1CN(S(=O)(=O)c2ccc(F)cc2)c2cc(NC(=O)c3c(F)cccc3Cl)ccc2O1 (stereo not drawn) [VI-31]	< 15 µM
N#Cc1cccc(S(=O)(=O)N2C[C@@H](CO)Oc3ccc(NC(=O)Cc4ccc(Cl)cc4)cc32)c1 [VI-56]	< 15 µM
CNCC1CN(S(=O)(=O)c2ccc(F)cc2)c2cc(NC(=O)c3c(F)cccc3Cl)ccc2O1 (stereo not drawn) [Compound 14]	< 15 µM
C[C@H]1CN(S(=O)(=O)c2cccc(C#N)c2)c2cc(NC(=O)c3c(Cl)cccc3C(F)(F)F)ccc2O1 [VI-5]	< 15 µM
C[C@H]1CN(S(=O)(=O)c2ccc(F)cc2)c2cc(NC(=O)C3(c4ccc(Cl)cc4)CC3)ccc2O1 [VI-131]	< 15 µM
O=C(Nc1ccc2c(c1)N(S(=O)(=O)c1ccc(F)cc1)CCO2)c1c(F)cccc1Cl [Compound 17, 2-Chloro-6-fluoro-N-(4-((4-fluorophenyl)sulfonyl)-3,4-dihydro-2H-benzo[b][1,4]oxazin-6-yl)benzamide]	> 15 µM
C[C@@H](O)[C@H]1CN(S(=O)(=O)c2ccc(F)cc2)c2cc(NC(=O)c3c(Cl)cccc3C(F)(F)F)ccc2O1 [VI-22]	< 15 µM

More lines, now with the values ahead:

IC50	Compound
< 15 µM	O=C(Cc1ccc(Cl)cc1)Nc1ccc2c(c1)N(S(=O)(=O)c1ccc(Cl)cc1)C[C@@H](CO)O2 [VI-50]
< 15 µM	CC(C(=O)Nc1ccc2c(c1)N(S(=O)(=O)c1ccc(F)cc1)C[C@H](C)O2)c1ccc(Cl)cc1 (stereo partly drawn) [VI-136]
< 15 µM	O=C(Cc1ccc(Cl)cc1)Nc1ccc2c(c1)N(S(=O)(=O)c1ccc(Cl)cc1)C[C@H](CO)O2 [VI-66]
< 15 µM	C[C@H]1CN(S(=O)(=O)c2ccc(F)cc2)c2cc(NC(=O)Cc3ccncc3)ccc2O1 [VI-130]
< 15 µM	O=C(Nc1ccc2c(c1)N(S(=O)(=O)c1ccc(F)cc1)CC(CC(F)(F)F)O2)c1c(F)cccc1Cl (stereo not drawn) [VI-7]
< 15 µM	C[C@H]1CN(S(=O)(=O)c2ccc(F)cc2)c2cc(NC(=O)[C@H](C)c3ccccc3)ccc2O1 [VI-134]
< 15 µM	C[C@H](O)[C@H]1CN(S(=O)(=O)c2ccc(F)cc2)c2cc(NC(=O)c3c(F)cccc3Cl)ccc2O1 [VI-23]
< 15 µM	C[C@H]1CN(S(=O)(=O)c2ccc(F)cc2)c2cc(NC(=O)c3c(F)cccc3C(F)(F)F)ccc2O1 [VI-19]
< 15 µM	O=C(Cc1ccc(F)cc1)Nc1ccc2c(c1)N(S(=O)(=O)c1ccc(Cl)cc1)C[C@@H](CO)O2 [VI-53]
